Source: patent publication US7666850B2, “Drug screens based on the newly found role of dystroglycan proteolysis and restoration of dystroglycan function thereof” (The Regents of the University of California, priority 1999, dated 2010)
“Also recorded” adds a separate entry of the source.

Legend:
HMT-3522-T4 (T4) cells = assay: 3-dimensional basement membrane (3D-BM) assay, HMT-3522-T4 cells; assay type: cell-based
From the text: Dystroglycan function reduces the growth potential and induces polarity in normal mammary epithelial cells exposed to basement membrane proteins. […] Because dystroglycan function is lost in part by proteolytic shedding, inhibition of dystroglycan shedding can restore or enhance dystroglycan function. Therefore, restoration of dystroglycan function can be used as an assay for inhibitors of the metaloproteinase(s) cleaving and shedding α-dystroglycan. […] The cells were counted and 100,000 cells were resuspended in 0.3-0.5 mls of growth factor-reduced Matrigel (Collaborative Research). This mixture was placed into a 1.5 cm diameter cell culture well, and incubated at 37 degrees Celsius for 30 minutes to induce gelling of the Matrigel. Subsequently, the gelled cell-BM protein mixture was overlayed with growth medium with or without the addition of protease inhibitors or control substances. The cells were cultured at 37 degrees Celsius in a cell culture incubator at 5% carbon dioxide. The growth medium and additives were changed every two days.
The assay was allowed to proceed from 6 to 10 days. […] Measures of polarity and reduced growth potential can be easily optimized by methods existing in the art.

MDA-MD-231 cells = assay: 3-dimensional basement membrane (3D-BM) assay, MDA-MD-231 cells; assay type: cell-based
From the text: Dystroglycan function reduces the growth potential and induces polarity in normal mammary epithelial cells exposed to basement membrane proteins. […] Because dystroglycan function is lost in part by proteolytic shedding, inhibition of dystroglycan shedding can restore or enhance dystroglycan function. Therefore, restoration of dystroglycan function can be used as an assay for inhibitors of the metaloproteinase(s) cleaving and shedding α-dystroglycan. Carcinoma cell lines, including the HMT-3522-T4 cells and MDA-MD-231 cells, were cultured within the 3-dimensional basement membrane (3-D BM) assay. To accomplish this the cells were trypsinized from routine cell culture, washed once with DMEM/F12 medium, treated with soybean trypsin inhibitor, washed again with DMEM/F12 medium and resuspended in growth medium [DMEM/F12, supplemented with insulin 250 ng/ml (Boehringer Mannheim, Indianapolis, Ind.), 10 μg/ml transferrin (Sigma), 2.6 ng/ml sodium selenite (Collaborative Research), 1.4×10^−6 M hydrocortisone (Collaborative Research), 1×10^−10 M β-estradiol (Sigma),5 μg/ml prolactin (Sigma)]. The cells were counted and 100,000 cells were resuspended in 0.3-0.5 mls of growth factor-reduced Matrigel (Collaborative Research). This mixture was placed into a 1.5 cm diameter cell culture well, and incubated at 37 degrees Celsius for 30 minutes to induce gelling of the Matrigel. Subsequently, the gelled cell-BM protein mixture was overlayed with growth medium with or without the addition of protease inhibitors or control substances. The cells were cultured at 37 degrees Celsius in a cell culture incubator at 5% carbon dioxide. The growth medium and additives were changed every two days.
The assay was allowed to proceed from 6 to 10 days. Over this time, the cells grew from single cells within the gel to form multicellular aggregates with variable characteristics, from polarized and growth arrested (normal phenotype), to disorganized and growing (tumorigenic phenotype), to invasive. […]

MMPs = conditions: MPs other than some ADAMs; cited from earlier work
[1] = test system: α-dystroglycan shedding, SCg6 mammary carcinoma cells; assay: Dystroglycan proteolysis assay: immunoblot detection of α-dystroglycan shed from the cell surface into culture medium; assay type: cell-based
Description: To ask if shedding was induced by the proteolysis, we treated the cells with a general matrix metaloproteinase (MW) inhibitor, GM6001, to see if α-dystroglycan shedding was inhibited.
Cleavage of a-dystroglycan was detected using cultured cells that cleave and shed dystroglycan from the cell surface. Dystroglycan cleavage was assayed for by immunoblotting to detect the presence of dystroglycan fragments in the medium of cultured cells. Mammary carcinoma cell lines SCg6 or TCL1 were cultured in 10 milliliters (ml) DMEM/F12 medium supplemented with 2% fetal calf serum, 5 μg/ml insulin (Sigma Chemical Co., St. Louis, Mo.), and 50 μg/ml Gentamycin (UCSF Cell Culture Facility). The cells were allowed to grow to 80% confluence in 10 centimeter (cm) plastic tissue culture dishes. The cells were rinsed two times with phosphate-buffered saline (PBS) and the medium was then changed to 10 mls DMEM/F12 medium supplemented with insulin, and Gentamycin, but without added serum. The cells were incubated in this serum-free medium for 48 hrs, then this conditioned medium was harvested and filtered through 0.4 µm filters to remove cells or cell debris. The harvested medium was concentrated from 10 ml to approximately 1.0 ml using a CENTRIPREP-30 concentrator (Amicon, Beverly, Mass.). The concentrated supernatant was added to 1/10th volume of 10× sample buffer (50% glycerol, 100 mM acetic acid, 10% SDS (w/v), 12.5% (v/v) β-mercaptoethanol, bromophenol blue) and heated at 70 degrees Celsius for 15 minutes prior to loading on SDS-polyacrylamide (SDS-PAGE) gels, and subjected to immunoblot analysis. Assays of dystroglycan cleavage and shedding in the presence of the metaloproteinase inhibitor GM6001 (AMS Scientific, Pleasant Hills, Calif.) were performed in the same manner, with varying concentrations of GM6001, or the control C1004 (AMS Scientific), diluted into the serum-free culture medium at the beginning of the 48 hour incubation. To compare treatments, equivalent volumes of conditioned medium from each treated cell population were loaded onto the gel to determine the relative quantities of dystroglycan shed into the medium.
After separation on an 8% SDS-PAGE gels, the proteins were electrophoretically transferred to Immobilon-P membranes (Millipore Corp., Bedford, Mass.) using methanol transfer buffer (20 mM Tris pH 8.3, 150 mM glycine, 0.5% SDS, 20% methanol). Following the transfer, the membranes were blocked for two hours in low salt TBST buffer (20 mM Tris-HCI, pH 8.0, 100 mM NaCl, 1.0% Tween-20 detergent) plus 5% non-fat dried milk (Lucerne). After blocking, the membranes were incubated for 45 minutes with the IIH6 monoclonal antibody (primary antibody against α-dystroglycan, obtained from Dr. Kevin Campbell, University of Iowa) diluted in low salt TBST plus 5% dried milk. The primary antibody was diluted 1:20 from a concentrated (8×) stock of hybridoma supernatant. After incubation with the primary antibody, the membranes were washed with low-salt TBST and incubated 45 minutes with an horse radish peroxidase (HRP) conjugated secondary antibody (anti-IgM Product # A 8786 from Sigma).

Row | Compound | reversion of the T4 tumor cell line in the 3D-BM assay (HMT-3522-T4 (T4) cells; 10 μM) | effect on tumor cell growth characteristics in the 3D-BM assay (MDA-MD-231 cells; 2 μM, FIG. 3F) | growth and invasion of MDA-MD-231 cells in the 3D-BM assay (MDA-MD-231 cells; 40 μM, FIGS. 3G, 3H) | concentration required to reduce growth (and invasion) of MDA-MD-231 cells (MDA-MD-231 cells; 6 to 10 days in Matrigel) | effect on tumor cell growth characteristics in the 3D-BM assay (HMT-3522-T4 (T4) cells; 2 μM, FIG. 3B) | tumorigenic phenotype in the 3D-BM assay (HMT-3522-T4 (T4) cells; 40 μM, FIGS. 3C, 3D) | cell growth after removal of the inhibitor (HMT-3522-T4 (T4) cells; removal for 7 days following a ten-day incubation with the inhibitor) | GM6001 concentrations that generally inhibit other MP's (MMPs) | shedding of α-dystroglycan (proteolysed form) into the culture supernatant ([1]; 40 μM, FIG. 1B) | shedding of α-dystroglycan in the supernatant across a concentration series ([1]; five different concentrations, FIG. 1C) | Ki ([1]; titration of GM6001, FIG. 1C, 48 h serum-free medium, read-out: Ki (pKi) for inhibition of α-dystroglycan shedding (converted)) [µM] | concentration giving nearly complete inhibition of α-dystroglycan shedding ([1]; titration, FIG. 1C)
1 | TAPI | revert | – | – | – | – | – | – | – | – | – | – | –
2 | CNC(=O)[C@H](Cc1c[nH]c2ccccc12)NC(=O)[C@@H](CC(=O)NO)CC(C)C [GM6001, N-[2(R)-2(hydroxamidocarbonylmethyl)-4-methylpentanoyl]-L-tryptophane methylamide] | – | No effect | potently inhibited the growth and invasion | over 20 μM | No effect | Complete “reversion” of the tumor phenotype; also recorded: caused growth arrest, polarization and reversion to a non-tumorigenic phenotype | did not permit a re-initiation of cell growth | below 30 μM | blocked; also recorded: no longer detected | differentially blocked | ~10 | over 25 μM
